Source: ChEMBL document CHEMBL4665699, “Cytotoxic Diterpenoids from Caryopteris aureoglandulosa” (J Nat Prod, 2020)

Columns and labels:
Assay type in all cases: functional, cell-based
[1] = test system: NCI-H460; assay: Cytotoxicity against human NCI-H460 cells assessed as reduction in cell viability after 48 hrs by CCK8 assay; conditions: NCI-H460, 48 h
[2] = test system: A549; assay: Cytotoxicity against human A549 cells assessed as reduction in cell viability after 48 hrs by CCK8 assay; conditions: A549, 48 h
[3] = Cytotoxicity against human 95-D cells assessed as reduction in cell viability after 48 hrs by CCK8 assay
[4] = test system: NCI-H1650; assay: Cytotoxicity against human NCI-H1650 cells assessed as reduction in cell viability after 48 hrs by CCK8 assay; conditions: NCI-H1650, 48 h
[5] = test system: PC-9; assay: Cytotoxicity against human PC-9 cells assessed as reduction in cell viability after 48 hrs by CCK8 assay; conditions: PC-9, 48 h

In the case of `C[C@@]12CC[C@@H](OC1=O)c1c2cc(O)c2c1C(=O)c1oc(CO)cc1C2=O`, the IC50 [1] is reported as greater than 10 µM, the IC50 [2] is reported as 4.8 µM and the IC50 [3] is reported as 3.9 µM. For the same molecule, the IC50 [4] was 1.6 µM and the IC50 [5] was greater than 10 µM.

For `O=c1[nH]cc(F)c(=O)[nH]1` [FLUOROURACIL], the IC50 [1] was 9.9 µM, the IC50 [2] was greater than 10 µM and the IC50 [3] was greater than 10 µM. For the same molecule, the IC50 [4] was greater than 10 µM and the IC50 [5] was greater than 10 µM.

With `Cc1cc2c(o1)C(=O)c1cc3c(c(O)c1C2=O)C(=O)CCCC3(C)C` the IC50 [1] was greater than 10 µM, the IC50 [2] was 10.4 µM and the IC50 [3] was greater than 10 µM. For the same molecule, the IC50 [4] was 5.4 µM and the IC50 [5] was 8.2 µM.
